Tested on: Intestinal EC Cells
Assay: Serotonin release from cultured rat intestinal (ileal) EC cell fractions, serotonin EIA
Type: cell-based
Settings: 60 minutes, 100,000 cells cultured overnight
Experimental: Male Sprague-Dawley rats (n=5 per preparation) were euthanized and the ileum was completely removed and divided into 2-3 pieces. Following end-ligation, these pieces of intestine were everted and filled with an enzyme mix of Pronase E (0.7 mg/mL), and collagenase (0.25 mg/ml). Cells were separated from the muscularis by alternative switching between a calcium containing Respiration medium and a 2 mM EDTA-containing digestive medium (with shaking). A total of 1-2×10^8 cells were obtained from each preparation. Five fractions of cells (F1-F5) were separated by counterflow-elutriation using flow rates of 25 ml/min at 2,500 rpm. Cells (100,000) were cultured overnight in Dulbecco's modified Eagles medium (DMEM)-F12 medium supplemented with 2 mg/ml bovine serum albumin, 5% fetal bovine serum, 5 mg/l gentamicin, 5 mg/l insulin, 5 mg/l transferring, 5 μg/l sodium selenite, and 1 nM hydrocortisone). After removal of the medium, fresh culture medium containing agonists (PACAP, galanin, forskolin, each at 10 nM) was added to the cells for 60 minutes. This medium was removed and the serotonin measured using an serotonin EIA kit and expressed as ng serotonin/100,000 cells/60 min.

## pituitary adenylate cyclase stimulating peptide [PACAP]
10^-8 M, negatively regulated serotonin release
  serotonin release versus controls: 0.88±0.06

## C=C[C@@]1(C)CC(=O)[C@]2(O)[C@@]3(C)[C@@H](O)CCC(C)(C)[C@@H]3[C@H](O)[C@H](OC(C)=O)[C@@]2(C)O1 [Forskolin]
Agonist 10 nM, positive control, p<0.05
  serotonin release, fold versus controls: 2.1±0.14 fold

From patent US20030175254A1, “Method of obtaining purified enterochromaffin cells and methods of using same” (priority 2001, published 2003)
